US20070167412A1, “HALOCOMBSTATINS AND METHODS OF SYNTHESIS THEREOF” (ARIZONA BOARD OF REGENTS, priority 2003, published 2007)
Converted amounts (≈) assume the structure as drawn. Where two headings read alike, the source gives them in different places.

Legend:
[1] = tested on: T1, purified tubulin; test: inhibition of tubulin polymerization (turbidimetry); format: biochemical
T1 construct: other: 10 μM tubulin, GTP 0.4 mM, 30° C., extent after 20 minutes
Experimental: (§1) Tubulin polymerization was evaluated by turbidimetry at 350 nm using Beckman DU7400/7500 spectrophotometers as described in detail elsewhere. […] Varying concentrations of drug were preincubated with 10 μM:M ([…]) purified tubulin (See Hamel, E., et al., Separation of Active Tubulin and Microtubule-associated Proteins by Ultracentrifiigation and Isolation of a Component Causing the Formation of Microtubule Bundles, Biochemistry 1984, 23, 4173-4184). Samples were chilled on ice, GTP (0.4 mM) was added, and polymerization was followed at 30° C. The parameter measured was extent of the reaction after 20 minutes. Coichicine binding was measured as described in detail previously. Reaction mixtures contained 1.0 μM :M tubulin, 5.0:M, [^3H]colchicine (from Dupont), and inhibitor at 1.0 μM:M. Incubation was for 10 minutes at 37° C.
Tubulin Evaluations: Tubulin polymerization was evaluated by turbidimetry at […] using Beckman DU7400/7500 spectrophotometers as known to one of skill in the art. Varying concentrations of the compound were preincubated with 10 μM. […]

[2] = tested on: tubulin; test: inhibition of [3H]colchicine binding to tubulin; conditions: 1.0 μM tubulin, 5.0 μM [3H]colchicine, inhibitor at 1.0 μM, 10 minutes at 37° C.
Experimental: as §1

[3] = tested on: Pancreas BXPC-3; test: human cancer cell growth inhibition, sulforhodamine B assay; format: cell-based; conditions: Table I, 48 hours; for GI50: Homo sapiens, BXPC-3, read-out: Human cancer cell line inhibition (GI50) Pancreas-a BXPC-3
Experimental: (§2) Inhibition of human cancer cell growth was assessed using the National Cancer Institute's standard sulforhodamine B assay. After 48 hours, the plates were fixed with trichloracetic acid, stained with sulforhodamine B and read with an automated microplate reader. […] Inhibition of the mouse leukemia P388 cells was assessed in a 10% horse serum/Fisher medium soution for 24 hours, followed by a 48 hour incubation with serial dilutions of the compounds. Cell growth inhibition (ED50) was then calculated using a Z1 Becleman/Coulter particle counter.

[4] = tested on: Prostate DU-145; test: as above; format: cell-based; conditions: Table I, 48 hours; for GI50: Homo sapiens, DU-145, read-out: Human cancer cell line inhibition (GI50) Prostate DU-145
Experimental: as §2

[5] = tested on: Lung-NSC NCI-H460; test: as above; format: cell-based; conditions: Table I, 48 hours; for GI50: Homo sapiens, NCI-H460, read-out: Human cancer cell line inhibition (GI50) Lung-NSC NCI-H460
Experimental: as §2

[6] = tested on: Colon KM20L2; test: as above; format: cell-based; conditions: Table I, 48 hours; for GI50: Homo sapiens, KM-20L2, read-out: Human cancer cell line inhibition (GI50) Colon KM20L2
Experimental: as §2

[7] = tested on: Breast MCF-7; test: as above; format: cell-based; conditions: Homo sapiens, MCF7; Table I; 48 hours; read-out: Human cancer cell line inhibition (GI50) Breast adn MCF-7
Experimental: as §2

[8] = tested on: CNS SF268; test: as above; format: cell-based; conditions: Table I, 48 hours; for GI50: Homo sapiens, SF-268, read-out: Human cancer cell line inhibition (GI50) CNS SF268
Experimental: as §2

[9] = tested on: Escherichia coli; test: reference broth microdilution susceptibility assay; format: cell-based; conditions: Table III
Text: (§3) The halocombstatins of the present invention appear to also have antimicrobial properties. More specifically, they appear to have antifungal and/or antibacterial properties. Antimicrobial evaluation of the halocombstatins involved susceptibility testing performed by the reference broth microdilution assay. The antimicrobial activities of the halocombstatins were very similar, targeting Gram-positive bacteria and the pathogenic fungi Cryptococcus neoformans, and results are shown in Table III.
(§4) (See Pettit, G. R., et al., Antineoplastic Agents 463. Synthesis of Combretastatin A-3 Diphosphates, Anticancer Drug Design 2000, 15, 397-404.) To determine the antimicrobial activity of the present compounds, susceptibility testing was performed by the reference broth microdilution assay. (See National Committee for Clinical Laboratory Standards. Methods for Dilution Antimicrobial Susceptibility Tests for Bacteria that Grow Aerobically. Approved Standard M7-A5. Wayne, P A: NCCLS, 2000. National Committee for Clinical Laboratory Standards. Reference Method for Broth Dilution Antifungal Susceptibility Testing of Yeasts. Aproved Standard M27-A. Wayne, P A: NCCLS, 1997.) The antimicrobial activities of the halocombretastatins of the present invention were very similar, targeting Gram-positive bacteria and Cryptococcus neoformans. This is illustrated in further detail in Table III. Thus, several of the novel compounds of the present invention appear to have potential as antimicrobial agents, such as antifingals and antibacterials.

[10] = tested on: Staphylococcus aureus; test: reference broth microdilution susceptibility assay; format: cell-based; conditions: Table III
Text: as §3, §4

[11] = tested on: Micrococcus luteus; test: reference broth microdilution susceptibility assay; format: cell-based; conditions: Table III
Text: as §3, §4

[12] = tested on: Streptococcus pneumoniae; test: reference broth microdilution susceptibility assay; format: cell-based; conditions: Table III
Text: as §3, §4

[13] = tested on: Enterococcus faecalis; test: reference broth microdilution susceptibility assay; format: cell-based; conditions: Table III
Text: as §3, §4

[14] = tested on: Neisseria gonorrhoeae; test: reference broth microdilution susceptibility assay; format: cell-based; conditions: Table III
Text: as §3, §4

[15] = tested on: Enterobacter cloacae; test: reference broth microdilution susceptibility assay; format: cell-based; conditions: Table III
Text: as §3, §4

[16] = tested on: Candida albicans; test: reference broth microdilution susceptibility assay; format: cell-based; conditions: Table III
Text: as §3, §4

[17] = tested on: Cryptococcus neoformans; test: reference broth microdilution susceptibility assay; format: cell-based; conditions: Table III
Text: as §3, §4

[18] = tested on: Stenotrophomonas maltophilia; test: reference broth microdilution susceptibility assay; format: cell-based; conditions: Table III
Text: as §3, §4

[19] = tested on: human umbilical vein endothelial cells (HUVEC); test: HUVEC growth inhibition, sulforhodamine B assay; format: cell-based; conditions: for Relative % Growth: HUVEC
Experimental: (§5) In vitro Matrigel antiangiogenesis assays were implemented according to the Developmental Therapeutics Program NCI/NIH protocols known to one of skill in the art. Matrigel, a basement membrane matrix, was obtained from BD Biosciences. Growth inhibition and cord formation assays were Conducted using human umbilical vein endothelial cells obtained from GlycoTeCh. HUVEC cells were grown in EGM-2 medium.
The standard sulforhodamine B assay (see Cancer Cell Line Procedures above) was used to evaluate results using HUVEC cells. IC50 or ED50 (drug concentration causing 50% inhibition) was calculated from the plotted data.

[20] = tested on: human umbilical vein endothelial cells (HUVEC); test: Matrigel cord formation assay; format: cell-based; design: key: −: No Cords; +: Small; ++: ˜50% of Control; +++: Same as Control; conditions: 24 hours, compared to untreated controls
Experimental: as §5
(§6) An aliquot of sixty microliters was placed in each well of an ice-cold 96-well plate. The plates were then left for 15 minutes at room temperature, then incubated for 30 minutes at 37° C. to permit the matrigel to polymerize. Meanwhile, HUVEC cells were harvested and diluted to a concentration of 2×10^5 cells/ml. A solution of 100 μL containing the compounds to be tested was added next. After 24 hours incubation, pictures were taken for each concentration using an inverted Nikon Diaphot microscope and D100 digital camera. Drug effect was assessed, compared to untreated controls, by measuring the length of cords formed and number ofjunctions.

[21] = tested on: human umbilical vein endothelial cells (HUVEC); test: Matrigel cord formation assay; format: cell-based; design: key to Lengths of Cords: −: No Cords; +: Small; ++: ˜50% of Control; +++: Same as Control; conditions: 24 hours, compared to untreated controls
Experimental: as §5, §6

[22] = tested on: SW1736; test: human anaplastic thyroid carcinoma cell line inhibition; format: cell-based
Experimental: (§7) Inhibition of human cancer cell growth was assessed using the National Cancer Institute's standard sulforhodamine B assay. After 48 hours, the plates were fixed with trichloracetic acid, stained with sulforhodamine B and read with an automated microplate reader. A growth inhibition of 50% (GI50 or the drug concentration causing a 50% reduction in the net protein increase) was calculated from optical density data with Inmunosoft software. Inhibition of the mouse leukemia P388 cells was assessed in a 10% horse serum/Fisher medium soution for 24 hours, followed by a 48 hour incubation with serial dilutions of the compounds. Cell growth inhibition (ED50) was then calculated using a Z1 Becleman/Coulter particle counter.

[23] = tested on: KAT-4; test: as above; format: cell-based
Experimental: as §7

Row | Molecule | Inhibition of colchicine binding % inhibition ± S.D. [2] [%] | GI50 [3] [µg/mL] | GI50 [4] [µg/mL] | GI50 [5] [µg/mL] | GI50 [6] [µg/mL] | GI50 [7] [µg/mL] | GI50 [8] [µg/mL] | Range of minimum inhibitory concentration, Escherichia coli [9] | Range of minimum inhibitory concentration, Staphylococcus aureus [10] | Range of minimum inhibitory concentration, Micrococcus luteus [11] [µg/mL] | Range of minimum inhibitory concentration, Streptococcus pneumoniae [12] | Range of minimum inhibitory concentration, Enterococcus faecalis [13] | Range of minimum inhibitory concentration, Neisseria gonorrhoeae [14] [µg/mL] | Range of minimum inhibitory concentration, Enterobacter cloacae [15] | Range of minimum inhibitory concentration, Candida albicans [16] | Range of minimum inhibitory concentration, Cryptococcus neoformans [17] | Range of minimum inhibitory concentration, Stenotrophomonas maltophilia [18] | melting point [°C] | also measured
1 | COc1ccc(/C=C\c2cc(Br)c(OC)c(OC)c2)cc1O [Compound 13a, 3-Bromo-4,4′,5-trimethoxy-3′-hydroxy-Z-stilbene] | 89 ± 2 | 0.16 (≈ 0.438 µM) | < 0.001 | < 0.001 | 0.086 (≈ 0.235 µM) | < 0.001 | < 0.001 | * (no inhibition at 64 μg/ml) | * (no inhibition at 64 μg/ml) | 32 to 64 | * (no inhibition at 64 μg/ml) | * (no inhibition at 64 μg/ml) | 32 to 64 | * (no inhibition at 64 μg/ml) | * (no inhibition at 64 μg/ml) | * (no inhibition at 64 μg/ml) | * (no inhibition at 64 μg/ml) | 108 to 109 | IC50 ([1]; 10 μM tubulin, GTP 0.4 mM, 30° C., extent after 20 minutes, read-out: Inhibition of polymerization IC50 ± S.D.): 1.5 ± 0.2 µM
2 | COc1ccc(/C=C/c2cc(I)c(OC)c(OC)c2)cc1O [Compound 14b, 3-Iodo-4,4′,5-trimethoxy-3′-hydroxy-E-stilbene] |  | 2.7 (≈ 6.55 µM) | 0.27 (≈ 0.655 µM) | 0.21 (≈ 0.509 µM) | 1.7 (≈ 4.12 µM) | 0.18 (≈ 0.437 µM) | 0.55 (≈ 1.33 µM) | * (no inhibition at 64 μg/ml) | 8 to 64 µg/mL | 4 to 8 | * (no inhibition at 64 μg/ml) | * (no inhibition at 64 μg/ml) | 4 to 16 | * (no inhibition at 64 μg/ml) | * (no inhibition at 64 μg/ml) | 64 µg/mL | * (no inhibition at 64 μg/ml) | 111 to 113 | 
3 | combretastatin A-4 [Compound 1a, reference compound] | 81 ± 3 |  |  |  |  |  |  |  |  |  |  |  |  |  |  |  |  |  | IC50 ([1]; text b32, read-out: IC50, inhibition of the polymerization reaction): 1.8 µM; Human cancer cell line inhibition (GI50) Pancreas-a BXPC-3 [3]: 0.39 µg/mL; Human cancer cell line inhibition (GI50) Prostate DU-145 [4]: 0.0008 µg/mL; Human cancer cell line inhibition (GI50) Lung-NSC NCI-H460 [5]: 0.0006 µg/mL; Human cancer cell line inhibition (GI50) Colon KM20L2 [6]: 0.061 µg/mL; Human cancer cell line inhibition (GI50) CNS SF268 [8]: <0.001 µg/mL
4 | COc1ccc(/C=C\c2cc(I)c(OC)c(I)c2)cc1C(C)=O [Compound 22c, 3,5-diiodo-4,4′-dimethoxy-3′-acetyl-z-stilbene] |  |  |  |  |  |  |  |  |  |  |  |  |  |  |  |  |  | 121 to 122 | 
5 | COc1ccc(/C=C/c2cc(Cl)c(OC)c(OC)c2)cc1O [Compound 12b, 3-Chloro-4,4′,5-trimethoxy-3′-hydroxy-E-stilbene] |  | 0.59 (≈ 1.84 µM) | 0.038 (≈ 0.118 µM) | 0.034 (≈ 0.106 µM) | 1.4 (≈ 4.36 µM) | 0.041 (≈ 0.128 µM) | 0.048 (≈ 0.15 µM) |  |  |  |  |  |  |  |  |  |  | 138 to 140 | 
6 | Potassium 3-iodo-4,4′,5-trimethoxy-z-stilbene 3′-O-phosphate [Compound 20c] |  |  |  |  |  |  |  |  |  |  |  |  |  |  |  |  |  |  | Relative % Growth ([19]; 0.00001 μg/ml): 95%; Relative % Growth ([19]; 0.0001 μg/ml): 77%; Relative % Growth ([19]; 0.001 μg/ml): 10%; Relative % Growth ([19]; 0.01 μg/ml): 1%; Human Umbilical Vein Endothelial Cell (HUVEC) Inhibition Values (GI50) ([19]; Table V): 0.00025 µg/mL; Number of junctions ([20]; 0.00001 μg/ml): +++; Number of junctions ([20]; 0.0001 μg/ml): +++; Lengths of Cords ([21]; 0.00001 μg/ml): +++; Lengths of Cords ([21]; 0.0001 μg/ml): +++; Lengths of Cords ([21]; 0.001 μg/ml): ++; Human Anaplastic Thyroid Carcinoma Cell Line Inhibition Values (GI50) SW1736 [22]: >10 µg/mL; Human Anaplastic Thyroid Carcinoma Cell Line Inhibition Values (GI50) KAT-4 [23]: 0.37 to 0.43 µg/mL
